In publication PMC4149570 (PLoS ONE, 2014):
“And” between values parts separate entries of the source, which are not always exact repeats. Equal entries are not always repeated. “Also recorded” adds a separate entry of the source. Where two headings read alike, the source gives them in different places.

Legend:
Y. pestis MEP synthase [1] = target: T1, Y. pestis MEP synthase (Yersinia pestis, UniProt Q8ZH62); conditions: for IC50: read-out: IC50 (dose-response, Figure 9)
E.coli MEP synthase = conditions: cited from earlier work
Y. pestis subsp. A1122 = experiment: microbe, parasite or virus in culture; format: cell-based, Yersinia pestis; conditions: for IC50: read-out: IC50 of Y. pestis growth (fractional growth, OD600)
Y. pestis MEP synthase [2] = target: T1, Y. pestis MEP synthase; experiment: biochemical; conditions: for inhibition at 100 µM: read-out: inhibition of enzymatic activity (rational library screen)
[3] = system: F. tularensis MEP synthase; conditions: cited from earlier work
MEP synthase = conditions: cited from earlier work
[4] = target: Synechocytis sp PCC6803 MEP synthase; conditions: cited from earlier work
F. tularensis = conditions: read-out: activity of fosmidomycin with F. tularensis (half maximal growth inhibition); cited from earlier work
[5] = Yersinia pestis, SUBSP.A1122, 24 h
[6] = IC50 (enzyme preincubated with inhibitor, Figure 10)

T1 sequence (Q8ZH62 whole entry, looked up): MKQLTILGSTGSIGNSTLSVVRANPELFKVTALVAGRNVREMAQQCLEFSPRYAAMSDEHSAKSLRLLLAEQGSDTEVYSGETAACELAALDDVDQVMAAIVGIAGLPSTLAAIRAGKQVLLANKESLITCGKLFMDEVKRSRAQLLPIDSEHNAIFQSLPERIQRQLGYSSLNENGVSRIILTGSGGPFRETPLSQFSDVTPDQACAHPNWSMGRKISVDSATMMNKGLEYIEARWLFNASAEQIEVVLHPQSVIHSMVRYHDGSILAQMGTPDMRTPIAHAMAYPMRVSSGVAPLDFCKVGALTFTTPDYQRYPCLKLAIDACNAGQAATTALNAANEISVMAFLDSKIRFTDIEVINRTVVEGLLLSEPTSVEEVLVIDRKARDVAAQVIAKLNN

For `CC(C)=CCOP(=O)(O)OP(=O)(O)O` [DMAPP, dimethylallyl pyrophosphate], the “inhibition of Y. pestis MEP synthase (feedback inhibition test)” value (shortened to “inhibition of Y. pestis MEP synthase”) (Y. pestis MEP synthase [1]) was “No enzyme inhibition was observed”.

For `CC(=O)N(O)CCCP(=O)(O)O` [FR900098, reference compound], the IC50 (E.coli MEP synthase; read-out: IC50 FR900098) is listed as 35 nM, the IC50 (Y. pestis subsp. A1122; [5]) is listed as 29 µM and 6.4 µg/mL and the IC50 (Y. pestis subsp. A1122) is listed as 29300 nM. The Ki (Y. pestis MEP synthase [2]) was 170 ± 7.1 nM, the IC50 (Y. pestis MEP synthase [2]; IC50 FR900098) was 231 nM and the “mode of inhibition with respect to DXP” value (Y. pestis MEP synthase [1]) was “competitive”. The “mode of inhibition with respect to NADPH” value (Y. pestis MEP synthase [1]) was “uncompetitive”, the IC50 ([3]; read-out: IC50 FR900098) was 230 nM and the “mode of inhibition relative to DXP” value (MEP synthase) was “competitive”. The “mode of inhibition with respect to the binding of NADPH” value (MEP synthase) was “uncompetitive” and the Ki ([4]; read-out: Ki FR900098) was 2 nM.

In the case of `CC(C)=CCC/C(C)=C/COP(=O)(O)OP(=O)(O)O` [GPP, geranyl pyrophosphate], the “inhibition of Y. pestis MEP synthase” value (Y. pestis MEP synthase [1]) is reported as “No enzyme inhibition was observed”.

With `C=C(C)CCO[P@@](=O)(O)OP(=O)(O)O` [IPP, isopentenyl pyrophosphate] the “inhibition of Y. pestis MEP synthase” value (Y. pestis MEP synthase [1]) was “No enzyme inhibition was observed”.

With `CC1(C)S[C@@H]2[C@H](NC(=O)[C@H](N)c3ccccc3)C(=O)N2[C@H]1C(=O)O` [ampicillin, reference compound] the IC50 (Y. pestis subsp. A1122; [5]) was 10.8 µM and 3.8 µg/mL.

`CC(=O)N(CCCP(=O)(O)O)OCc1ccc(-c2ccccc2)cc1` [compound 13] showed an inhibition at 100 µM (Y. pestis MEP synthase [2]) of over 75% and an IC50 (Y. pestis MEP synthase [1]) of 5110 nM.

For `C[C@@]1(CO)OP(=O)(O)OP(=O)(O)OC[C@H]1O` [compound 15], the “growth inhibitory activity towards Y. pestis liquid culture” value (Y. pestis subsp. A1122) was “comparable to FR900098; also recorded: relatively poor inhibitory activity”, the IC50 (Y. pestis MEP synthase [2]; IC50 (dose-response, Figure 9)) was 4110 nM and the IC50 (Y. pestis MEP synthase [2]; [6]) was 1190 nM. For the same compound, the inhibition at 100 µM (Y. pestis MEP synthase [2]) was over 75% and the “improvement of IC50 on preincubation with inhibitor” value (Y. pestis MEP synthase [1]) was “approximately 3 fold”.

With `C/C(=C\COP(=O)(O)OP(=O)(O)O)CO` [compound 16] the “growth inhibitory activity towards Y. pestis liquid culture” value (Y. pestis subsp. A1122) was “comparable to FR900098; also recorded: relatively poor inhibitory activity”, the IC50 (Y. pestis MEP synthase [2]; IC50 (dose-response, Figure 9)) was 4150 nM and the IC50 (Y. pestis MEP synthase [2]; [6]) was 335 nM. The inhibition at 100 µM (Y. pestis MEP synthase [2]) was over 75%, the “improvement of IC50 on preincubation with inhibitor” value (Y. pestis MEP synthase [1]) was about 12 fold and the “mode of inhibition with respect to DXP” value (Y. pestis MEP synthase [1]) was “competitive”. For the same compound, the “mode of inhibition with respect to NADPH” value (Y. pestis MEP synthase [1]) was “competitive”.

Work on `Cc1ccc(C(=O)N(O)CCCP(=O)(O)O)cc1` [compound 42] yielded an inhibition at 100 µM (Y. pestis MEP synthase [2]) of over 75% and an IC50 (Y. pestis MEP synthase [1]) of 10800 nM.

Work on `O=C(c1ccc2ccccc2c1)N(O)CCCP(=O)(O)O` [compound 48] yielded an inhibition at 100 µM (Y. pestis MEP synthase [2]) of over 75% and an IC50 (Y. pestis MEP synthase [1]) of 9530 nM.

With `CCOP(=O)(CCCN(OCc1ccc(C(C)C)cc1)C(C)=O)OCC` [compound 51] the “growth inhibitory activity towards Y. pestis liquid culture” value (Y. pestis subsp. A1122) was “comparable to FR900098; also recorded: relatively poor inhibitory activity”.

With `CC(=O)N(CCCP(=O)(OCOC(=O)C(C)(C)C)OCOC(=O)C(C)(C)C)OCc1ccc(C(C)C)cc1` [compound 52] the “growth inhibitory activity towards Y. pestis liquid culture” value (Y. pestis subsp. A1122) was “comparable to FR900098; also recorded: relatively poor inhibitory activity”.

In the case of `O=CN(O)CCCP(=O)(O)O` [fosmidomycin], the IC50 (E.coli MEP synthase; read-out: IC50 fos) is given as 35 nM, the Ki (E.coli MEP synthase; read-out: Ki fos) is given as 21 to 215 nM and the Ki (Y. pestis MEP synthase [2]) is given as 968 nM. For the same compound, the IC50 (Y. pestis MEP synthase [2]; IC50 fos) was 710 nM, the IC50 (F. tularensis) was 12100 nM and the IC50 ([3]; read-out: IC50 fos) was 247 nM. For the same compound, the Ki ([3]; read-out: Ki fos) was 98.9 ± 4.5 nM, the “mode of inhibition with respect to the binding of NADPH” value (MEP synthase) was “uncompetitive” and the Ki ([4]; read-out: Ki fos) was 4 nM.
